This passage reports IC50 results from patent US8338465B2, “Cyclic carboxylic acid rhodanine derivatives for the treatment and prevention of tuberculosis” (priority 2006, dated 2012).

Where a name gives a salt, the structure may show the parent alone. Bounds are passed on as bounds.

The target in one test is T1, dihydrolipoamide acyltransferase (DlaT) (Mycobacterium tuberculosis, UniProt P9WIS7).
T1 sequence (P9WIS7 1-553): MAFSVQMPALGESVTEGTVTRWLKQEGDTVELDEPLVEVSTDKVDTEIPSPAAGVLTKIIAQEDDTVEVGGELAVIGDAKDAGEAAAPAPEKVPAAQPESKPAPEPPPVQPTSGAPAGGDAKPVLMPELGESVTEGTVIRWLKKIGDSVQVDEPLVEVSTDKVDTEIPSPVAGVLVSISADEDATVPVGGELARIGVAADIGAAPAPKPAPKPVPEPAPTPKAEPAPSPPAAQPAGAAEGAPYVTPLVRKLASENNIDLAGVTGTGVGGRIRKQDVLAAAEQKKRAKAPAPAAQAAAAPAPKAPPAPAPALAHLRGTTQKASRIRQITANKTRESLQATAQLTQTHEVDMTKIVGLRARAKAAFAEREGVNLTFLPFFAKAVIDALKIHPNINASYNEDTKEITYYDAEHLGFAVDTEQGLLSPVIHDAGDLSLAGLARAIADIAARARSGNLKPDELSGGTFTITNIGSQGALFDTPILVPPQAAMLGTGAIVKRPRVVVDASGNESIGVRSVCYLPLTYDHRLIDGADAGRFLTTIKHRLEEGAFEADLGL
Put plainly: DlaT inhibition (Dlat IC50); DTNB peroxidase assay with Lpd, DlaT and AhpD. Format: biochemical. Conditions: Dlat IC50 category, Table 17, Compounds Q1 to Q9.
What is called IC50 is the concentration at which inhibition is half-maximal. In turn, `O=C(O)c1ccc(N2C(=O)C(=Cc3ccc(-c4cncnc4)o3)SC2=S)cc1` [Compound Q2] registered an IC50 of 11 to 40 µM. `NS(=O)(=O)c1ccc(N2C(=O)C(=Cc3ccc(-c4cncnc4)o3)SC2=S)cc1` [Compound Q3] yielded an IC50 of 11 to 40 µM.

In turn, `O=C(O)c1cccc(N2C(=O)C(=Cc3ccc(-c4ccncc4)o3)SC2=S)c1` [Compound Q4] displayed an IC50 of 11 to 40 µM. In turn, `O=C(O)c1cc(N2C(=O)C(=Cc3ccc(-c4ccsc4Cl)o3)SC2=S)ccc1O` [Compound Q5] returned an IC50 of 11 to 40 µM.

As to `O=C(O)c1cccc(N2C(=O)C(=Cc3ccc(-c4ccc5nonc5c4)o3)SC2=S)c1` [Compound Q9], the IC50 was in the range of 11 to 40 µM.

The test is the same for the next values; noted with them: Dlat IC50 category, Table 20, Prodrugs (Compounds T1 to T8).
For `O=C(OCCCCO)c1cccc(N2C(=O)C(=Cc3ccc(-c4ccccc4Cl)o3)SC2=S)c1` [Compound T1, 3-{5-[1-[5-(2-Chloro-phenyl)-furan-2-yl]-methylidene]-4-oxo-2-thioxo-thiazolidin-3-yl}-benzoic acid 4-hydroxy-butyl ester], the IC50 lay in the range of 41 to 80 µM. In the case of `O=C(OCCCO)c1cccc(N2C(=O)C(=Cc3ccc(-c4ccccc4Cl)o3)SC2=S)c1` [Compound T2, 3-{5-[1-[5-(2-Chloro-phenyl)-furan-2-yl]-methylidene]-4-oxo-2-thioxo-thiazolidin-3-yl}-benzoic acid 3-hydroxy-propyl ester], the IC50 was 41 to 80 µM. In the case of `O=C(OCCCCOP(=O)(O)O)c1cccc(N2C(=O)C(=Cc3ccc(-c4ccccc4Cl)o3)SC2=S)c1` [Compound T3, 3-{5-[1-[5-(2-Chloro-phenyl)-furan-2-yl]-methylidene]-4-oxo-2-thioxo-thiazolidin-3-yl}-benzoic acid 4-phosphonooxy-butyl ester], the IC50 was in the range of 41 to 80 µM. For `O=C(OCC(CO)CO)c1cccc(N2C(=O)C(=Cc3ccc(-c4ccccc4Cl)o3)SC2=S)c1` [Compound T4, 3-{5-[1-[5-(2-Chloro-phenyl)-furan-2-yl]-methylidene]-4-oxo-2-thioxo-thiazolidin-3-yl}-benzoic acid 3-hydroxy-2-hydroxymethyl-propyl ester], the IC50 is 11 to 40 µM. Same read-out and setting: with `O=C(NC(CO)(CO)CO)c1cccc(N2C(=O)C(=Cc3ccc(-c4ccccc4Cl)o3)SC2=S)c1` [Compound T6, 3-{5-[1-[5-(2-Chloro-phenyl)-furan-2-yl]-methylidene]-4-oxo-2-thioxo-thiazolidin-3-yl}-N-(2-hydroxy-1,1-bis-hydroxymethyl-ethyl)-benzamide] the figure was 11 to 40 µM; with `O=C(NC(CO)CO)c1cccc(N2C(=O)C(=Cc3ccc(-c4ccccc4Cl)o3)SC2=S)c1` [Compound T7, 3-{5-[1-[5-(2-Chloro-phenyl)-furan-2-yl]-methylidene]-4-oxo-2-thioxo-thiazolidin-3-yl}-N-(2-hydroxy-1-hydroxymethyl-ethyl)-benzamide], 11 to 40 µM; with `O=C(OCCN(CCO)CCO)c1cccc(N2C(=O)C(=Cc3ccc(-c4ccccc4Cl)o3)SC2=S)c1` [Compound T8, 3-{5-[1-[5-(2-Chloro-phenyl)-furan-2-yl]-methylidene]-4-oxo-2-thioxo-thiazolidin-3-yl}-benzoic acid 2-[bis-(2-hydroxy-ethyl)-amino]-ethyl ester], 41 to 80 µM.

Still in this test, the particulars now being: Dlat IC50 category, Table 21, Prodrugs (Examples U1 to U10).
Consider `CNS(=O)(=O)c1ccc(-c2ccc(C=C3SC(=S)N(C4CCCC(C(=O)OCCCO)C4)C3=O)o2)cc1` (stereo not shown) [Compound U2, 3-{5-[1-[5-(4-Methylsulfamoyl-phenyl)-furan-2-yl]-methylidene]-4-oxo-2-thioxo-thiazolidin-3-yl}-cyclohexanecarboxylic acid 3-hydroxy-propyl ester], for which the IC50 was in the range of 11 to 40 µM. For the compound `CSc1ccc(-c2ccc(C=C3SC(=S)N(C4CCCC(C(=O)OCCO)C4)C3=O)o2)cc1` (stereo not shown) [Compound U3, 3-{5-[1-[5-(4-Methylsulfanyl-phenyl)-furan-2-yl]-methylidene]-4-oxo-2-thioxo-thiazolidin-3-yl}-cyclohexanecarboxylic acid 2-hydroxy-ethyl ester], the IC50 was in the range of 41 to 80 µM. Take `CSc1ccc(-c2ccc(C=C3SC(=S)N(C4CCCC(C(=O)OCCCCO)C4)C3=O)o2)cc1` (stereo not shown) [Compound U4, 3-{5-[1-[5-(4-Methylsulfanyl-phenyl)-furan-2-yl]-methylidene]-4-oxo-2-thioxo-thiazolidin-3-yl}-cyclohexanecarboxylic acid 4-hydroxy-butyl ester]: the IC50 was 41 to 80 µM. Still for that read-out and setting: with `CSc1ccc(-c2ccc(C=C3SC(=S)N(C4CCCC(C(=O)OCC(CO)CO)C4)C3=O)o2)cc1` (stereo not shown) [Compound U5, 3-{5-[1-[5-(4-Methylsulfanyl-phenyl)-furan-2-yl]-methylidene]-4-oxo-2-thioxo-thiazolidin-3-yl}-cyclohexanecarboxylic acid 3-hydroxy-2-hydroxymethyl-propyl ester] the figure was 11 to 40 µM; with `CSc1ccc(-c2ccc(C=C3SC(=S)N(C4CCCC(C(=O)OCC(C)(CO)CO)C4)C3=O)o2)cc1` (stereo not shown) [Compound U6, 3-{5-[1-[5-(4-Methylsulfanyl-phenyl)-furan-2-yl]-methylidene]-4-oxo-2-thioxo-thiazolidin-3-yl}-cyclohexanecarboxylic acid 3-hydroxy-2-hydroxymethyl-2-methyl-propyl ester], 41 to 80 µM; with `CSc1ccc(-c2ccc(C=C3SC(=S)N(C4CCCC(C(=O)NC(CO)(CO)CO)C4)C3=O)o2)cc1` (stereo not shown) [Compound U7, 3-{5-[1-[5-(4-Methylsulfanyl-phenyl)-furan-2-yl]-methylidene]-4-oxo-2-thioxo-thiazolidin-3-yl}-cyclohexanecarboxylic acid (2-hydroxy-1,1-bis-hydroxymethyl-ethyl)-amide], 41 to 80 µM.

Regarding `CSc1ccc(-c2ccc(C=C3SC(=S)N(C4CCCC(C(=O)NC(CO)CO)C4)C3=O)o2)cc1` (stereo not shown) [Compound U8, 3-{5-[1-[5-(4-Methylsulfanyl-phenyl)-furan-2-yl]-methylidene]-4-oxo-2-thioxo-thiazolidin-3-yl}-cyclohexanecarboxylic acid (2-hydroxy-1-hydroxymethyl-ethyl)-amide], the IC50 fell in the range of 41 to 80 µM.

With `CS(=O)(=O)c1ccc(-c2ccc(C=C3SC(=S)N(C4CCCC(C(=O)OCCCO)C4)C3=O)o2)cc1` (stereo not shown) [Compound U9, 3-{5-[1-[5-(4-Methanesulfonyl-phenyl)-furan-2-yl]-methylidene]-4-oxo-2-thioxo-thiazolidin-3-yl}-cyclohexanecarboxylic acid 3-hydroxy-propyl ester], the IC50 lay within 41 to 80 µM. Same read-out and setting: under `CSc1ccc(-c2ccc(C=C3SC(=S)N(C4CCCC(C(=O)OCCN(CCO)CCO)C4)C3=O)o2)cc1` (stereo not shown) [Compound U10, 3-{5-[1-[5-(4-Methylsulfanyl-phenyl)-furan-2-yl]-methylidene]-4-oxo-2-thioxo-thiazolidin-3-yl}-cyclohexanecarboxylic acid 2-[bis-(2-hydroxy-ethyl)-amino]-ethyl ester hydrochloride] stands less than 10 µM.

The same test, now with this note: Table 20, Prodrugs (Compounds T1 to T8); read-out: Dlat IC50 category.
Consider `CC(CO)(CO)COC(=O)c1cccc(N2C(=O)C(=Cc3ccc(-c4ccccc4Cl)o3)SC2=S)c1` [Compound T5, 3-{5-[1-[5-(2-Chloro-phenyl)-furan-2-yl]-methylidene]-4-oxo-2-thioxo-thiazolidin-3-yl}-benzoic acid 3-hydroxy-2-hydroxymethyl-2-methyl propyl ester], for which the IC50 is 11 to 40 µM.
